Measurements taken from patent US10072026B2, “Crystalline form of 3-((1R,3s,5S)-3-((7-((5-methyl-1H-pyrazol-3-yl)amino)-1,6-naphthyridin-5-yl)amino)-8-azabicyclo[3.2.1]octan-8-yl)propanenitrile” (priority 2015, dated 2018).
Read-outs that look alike come from different tables or passages of the source.

Assays:
JAK1 = JAK1 (Homo sapiens (Human), UniProt P23458); assay: LanthaScreen JAK biochemical assay (JAK1)
JAK2 = JAK2 (Homo sapiens (Human), UniProt O60674); assay: LanthaScreen JAK biochemical assay (JAK2); conditions: for Ki: read-out: JAK 2 (pKi) (converted)
[1] = tested on: IL-4 induced STAT6 phosphorylation in THP-1 human monocytic cells; assay: Cellular JAK potency assay, THP-1
[2] = IL-4 induced STAT6 phosphorylation, THP-1 cells
[3] = read-out: JAK 1 (pKi) (converted)
[4] = Homo sapiens, THP-1, read-out: THP-1 IL4 pIC50 (converted)
[5] = THP-1 cells, IL-4 induced STAT6 phosphorylation

Chain of JAK1 (P23458 whole entry): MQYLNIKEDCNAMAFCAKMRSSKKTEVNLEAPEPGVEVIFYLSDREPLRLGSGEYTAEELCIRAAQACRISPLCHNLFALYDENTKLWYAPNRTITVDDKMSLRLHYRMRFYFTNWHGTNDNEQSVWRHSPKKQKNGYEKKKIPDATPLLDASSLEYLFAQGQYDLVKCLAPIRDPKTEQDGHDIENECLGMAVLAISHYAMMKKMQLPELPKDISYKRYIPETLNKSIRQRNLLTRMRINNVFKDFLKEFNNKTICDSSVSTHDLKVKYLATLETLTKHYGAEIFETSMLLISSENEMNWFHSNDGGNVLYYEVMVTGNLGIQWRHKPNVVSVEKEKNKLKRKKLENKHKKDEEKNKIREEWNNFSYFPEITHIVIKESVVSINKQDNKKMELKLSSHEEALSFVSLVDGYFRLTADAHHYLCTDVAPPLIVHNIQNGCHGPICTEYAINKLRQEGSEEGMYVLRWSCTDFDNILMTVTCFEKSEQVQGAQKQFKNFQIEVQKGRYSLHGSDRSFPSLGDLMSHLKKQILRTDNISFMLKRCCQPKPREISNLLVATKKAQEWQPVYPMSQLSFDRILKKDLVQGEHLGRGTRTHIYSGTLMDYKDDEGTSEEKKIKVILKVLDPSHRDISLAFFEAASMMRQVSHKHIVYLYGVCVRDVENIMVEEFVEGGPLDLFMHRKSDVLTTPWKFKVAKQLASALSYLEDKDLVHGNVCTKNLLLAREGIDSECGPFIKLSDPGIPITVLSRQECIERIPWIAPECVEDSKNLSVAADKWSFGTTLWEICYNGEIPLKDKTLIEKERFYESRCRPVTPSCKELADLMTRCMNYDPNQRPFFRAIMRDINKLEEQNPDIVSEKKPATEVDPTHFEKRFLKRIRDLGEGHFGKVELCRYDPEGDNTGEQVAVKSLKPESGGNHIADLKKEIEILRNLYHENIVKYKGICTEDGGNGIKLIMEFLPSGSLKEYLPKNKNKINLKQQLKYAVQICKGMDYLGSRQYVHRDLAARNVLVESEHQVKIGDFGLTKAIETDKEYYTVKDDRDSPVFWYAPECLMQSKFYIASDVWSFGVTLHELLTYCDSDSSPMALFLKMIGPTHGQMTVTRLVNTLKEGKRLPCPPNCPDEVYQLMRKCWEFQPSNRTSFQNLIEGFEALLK
Chain of JAK2 (O60674 whole entry): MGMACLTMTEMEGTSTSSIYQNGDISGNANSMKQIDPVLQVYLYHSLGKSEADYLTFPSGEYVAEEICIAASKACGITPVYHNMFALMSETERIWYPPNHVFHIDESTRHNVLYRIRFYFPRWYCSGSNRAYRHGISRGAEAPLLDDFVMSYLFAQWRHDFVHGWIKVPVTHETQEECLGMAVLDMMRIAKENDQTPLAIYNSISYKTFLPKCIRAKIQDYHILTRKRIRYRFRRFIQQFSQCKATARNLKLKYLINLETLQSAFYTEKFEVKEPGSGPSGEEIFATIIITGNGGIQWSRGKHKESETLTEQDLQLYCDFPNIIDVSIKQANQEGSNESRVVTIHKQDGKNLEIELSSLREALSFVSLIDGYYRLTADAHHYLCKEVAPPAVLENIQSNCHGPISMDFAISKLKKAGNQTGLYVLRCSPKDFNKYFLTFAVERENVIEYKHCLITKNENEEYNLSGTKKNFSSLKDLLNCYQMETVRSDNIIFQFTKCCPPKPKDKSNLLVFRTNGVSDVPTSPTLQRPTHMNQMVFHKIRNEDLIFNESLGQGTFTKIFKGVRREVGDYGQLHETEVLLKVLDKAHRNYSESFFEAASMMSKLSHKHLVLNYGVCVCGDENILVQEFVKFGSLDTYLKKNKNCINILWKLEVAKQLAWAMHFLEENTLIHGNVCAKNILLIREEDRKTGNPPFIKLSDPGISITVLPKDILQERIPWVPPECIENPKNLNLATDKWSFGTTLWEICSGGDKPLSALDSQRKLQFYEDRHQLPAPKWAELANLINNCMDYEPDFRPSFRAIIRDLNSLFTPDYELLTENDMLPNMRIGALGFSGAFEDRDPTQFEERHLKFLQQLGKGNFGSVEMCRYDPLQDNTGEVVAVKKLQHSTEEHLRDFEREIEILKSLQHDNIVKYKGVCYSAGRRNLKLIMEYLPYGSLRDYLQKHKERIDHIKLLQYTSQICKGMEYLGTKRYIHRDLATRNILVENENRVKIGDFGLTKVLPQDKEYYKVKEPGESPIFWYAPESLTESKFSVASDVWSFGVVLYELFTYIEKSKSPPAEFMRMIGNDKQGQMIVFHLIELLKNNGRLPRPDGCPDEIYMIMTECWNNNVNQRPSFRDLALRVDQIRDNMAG

Structure (SMILES)	JAK 1 (pKi) (JAK1)	JAK 2 (pKi) (JAK2)	THP-1 IL4 pIC50 [1, 2]	also measured
C=CCOC(=O)N1[C@@H]2CC[C@H]1C[C@H](Nc1nc(Nc3cc(C)[nH]n3)cc3ncccc13)C2 [Example 3-4]	B (B represents a pKi value between 9 and 10 (Ki between 1 nM and 0.1 nM))	B (B represents a pKi value between 9 and 10 (Ki between 1 nM and 0.1 nM))	A (A represents a pEC50 value≥7.5 (EC50≤32 nM))	–
Cc1cc(Nc2cc3ncccc3c(N[C@@H]3C[C@H]4CCC[C@@H](C3)N4CC(=O)OC(C)(C)C)n2)n[nH]1 [Example 1-36]	B (B represents a pKi value between 9 and 10 (Ki between 1 nM and 0.1 nM))	B (B represents a pKi value between 9 and 10 (Ki between 1 nM and 0.1 nM))	B (B represents a pEC50 value between 6.7 and 7.5 (EC50 between 200 nM and 32 nM))	–
Cc1cc(Nc2cc3nc(CN4CCN(C)CC4)ccc3c(N[C@@H]3C[C@H]4CC[C@@H](C3)N4S(=O)(=O)c3cncc(F)c3)n2)n[nH]1 [Example 5-40]	–	–	–	Ki (JAK1; [3]): 0.1 to 1 nM; Ki (JAK2): 0.1 to 1 nM; IC50 [1, 4]: 31.6 to 200 nM
COCCOC(=O)N1[C@@H]2CCC[C@H]1C[C@H](Nc1nc(Nc3cc(C)[nH]n3)cc3ncccc13)C2 [Example 3-9]	B (B represents a pKi value between 9 and 10 (Ki between 1 nM and 0.1 nM))	B (B represents a pKi value between 9 and 10 (Ki between 1 nM and 0.1 nM))	A (A represents a pEC50 value≥7.5 (EC50≤32 nM))	–
Cc1cnc2cc(Nc3cc(C)[nH]n3)nc(N[C@@H]3C[C@H]4CCC[C@@H](C3)N4C(=O)OCC(C)C)c2c1 [Example 6-7]	–	B (B represents a pKi value between 9 and 10 (Ki between 1 nM and 0.1 nM))	–	THP-1 IL4 pIC50 [1, 5]: B (B represents a pEC50 value between 6.7 and 7.5 (EC50 between 200 nM and 32 nM))
Cc1cnc2c(F)c(Nc3cc(C)[nH]n3)nc(N[C@@H]3C[C@H]4CC[C@@H](C3)N4CCC#N)c2c1 [Example 8-18]	B (B represents a pKi value between 9 and 10 (Ki between 1 nM and 0.1 nM))	B (B represents a pKi value between 9 and 10 (Ki between 1 nM and 0.1 nM))	–	THP-1 IL4 pIC50 [1, 5]: B (B represents a pEC50 value between 6.7 and 7.5 (EC50 between 200 nM and 32 nM))
Cc1cnc2c(F)c(Nc3cc(C)[nH]n3)nc(N[C@@H]3C[C@H]4CCC[C@@H](C3)N4CCC#N)c2c1 [Example 8-21]	B (B represents a pKi value between 9 and 10 (Ki between 1 nM and 0.1 nM))	B (B represents a pKi value between 9 and 10 (Ki between 1 nM and 0.1 nM))	–	THP-1 IL4 pIC50 [1, 5]: B (B represents a pEC50 value between 6.7 and 7.5 (EC50 between 200 nM and 32 nM))
CCC(=O)N1[C@@H]2CC[C@H]1C[C@H](Nc1nc(Nc3cc(C)[nH]n3)cc3ncc(C(=O)OC)cc13)C2 [Example 6-36]	–	–	–	Ki (JAK1; [3]): 0.1 to 1 nM; Ki (JAK2): 0.1 to 1 nM; IC50 [1, 4]: 31.6 to 200 nM
Cc1cc(Nc2cc3nc(CN4CCOCC4)ccc3c(N[C@@H]3C[C@H]4CCC[C@@H](C3)N4CC(F)(F)F)n2)n[nH]1 [Example 5-29]	–	A (A represents a pKi value≥10 (Ki≤0.1 nM))	B (B represents a pEC50 value between 6.7 and 7.5 (EC50 between 200 nM and 32 nM))	–
Cc1cc(Nc2cc3ncccc3c(N[C@@H]3C[C@H]4CCC[C@@H](C3)N4CC3COC(=O)O3)n2)n[nH]1 (stereo partly drawn) [Example 1-58]	–	A (A represents a pKi value≥10 (Ki≤0.1 nM))	B (B represents a pEC50 value between 6.7 and 7.5 (EC50 between 200 nM and 32 nM))	–
Cc1cc(Nc2cc3ncccc3c(N[C@@H]3C[C@H]4CCC[C@@H](C3)N4C(=O)C3(C)CCCC3)n2)n[nH]1 [Example 2-23]	–	B (B represents a pKi value between 9 and 10 (Ki between 1 nM and 0.1 nM))	B (B represents a pEC50 value between 6.7 and 7.5 (EC50 between 200 nM and 32 nM))	–
Cc1cc(Nc2cc3ncccc3c(N[C@@H]3C[C@H]4CC[C@@H](C3)N4S(=O)(=O)C3CN(CCC#N)C3)n2)n[nH]1 [Example 4-11]	–	–	–	Ki (JAK1; [3]): 0.1 to 1 nM; IC50 [1, 4]: > 200 nM
Cc1cc(Nc2cc3ncccc3c(N[C@@H]3C[C@H]4CC[C@@H](C3)N4C3CCOC3=O)n2)n[nH]1 (stereo partly drawn) [Example 1-26]	–	–	–	Ki (JAK1; [3]): 0.1 to 1 nM; Ki (JAK2): 0.1 to 1 nM
Cc1cc(Nc2nc(N[C@@H]3C[C@H]4CCC[C@@H](C3)N4C(=O)CN(C)C)c3cccnc3c2F)n[nH]1 [Example 8-15]	B (B represents a pKi value between 9 and 10 (Ki between 1 nM and 0.1 nM))	–	–	THP-1 IL4 pIC50 [1, 5]: C (C represents a pEC50 value<6.7 (EC50>200 nM))
COCCOC(=O)N1[C@@H]2CC[C@H]1C[C@H](Nc1nc(Nc3cc(C)[nH]n3)cc3ncccc13)C2 [Example 3-5]	B (B represents a pKi value between 9 and 10 (Ki between 1 nM and 0.1 nM))	–	B (B represents a pEC50 value between 6.7 and 7.5 (EC50 between 200 nM and 32 nM))	–
COCC1CCCN1S(=O)(=O)N1[C@@H]2CC[C@H]1C[C@H](Nc1nc(Nc3cc(C)[nH]n3)cc3ncccc13)C2 (stereo partly drawn) [Example 4-12]	–	–	–	Ki (JAK1): 0.1 to 1 nM; IC50 [1, 4]: 31.6 to 200 nM
